Assay results published in patent US20260262643A1, “HERBICIDAL BENZOXAZINES” (FMC CORPORATION, priority 2022, published 2026).

What was measured:
barnyardgrass [1] = assay: Test D flooded paddy test; format: in vivo, Echinochloa crus-galli; details: 250 g ai/ha, applied to paddy water, visual rating after 13 to 14 days, scale 0 to 100 (0 no effect, 100 complete control)
In short: (§1)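 At the 2-leaf stage, floodwater 3 cm deep received the test compound; that depth persisted throughout. Plants scored visually 13 to 14 days on, 0 (no effect) to 100 (complete control), dash indicating no result.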

sedge, umbrella = assay: Test D flooded paddy test; format: in vivo, Cyperus difformis; details: 250 g ai/ha, applied to paddy water, visual rating after 13 to 14 days, scale 0 to 100 (0 no effect, 100 complete control)
In short: as §1

green foxtail [2] = assay: Test C preemergence; format: in vivo, Setaria viridis; details: 0 to 100 scale (0 no effect, 100 complete control); for Plant response rating, Foxtail, Green: Preemergence, visual rating after 10 days
In short: (§2)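 Visual injury score, 0–100 (100 = complete control), taken 10 days after treatment relative to untreated controls. Pre: directed spray onto soil over sown seeds. Post: foliar spray at one- to two-leaf stage, 2–10 cm. Solvent/surfactant formulation; loam–sand soil; greenhouse.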

blackgrass [3] = assay: Test C preemergence; format: in vivo, Alopecurus myosuroides; details: 0 to 100 scale (0 no effect, 100 complete control); for Plant response rating, Blackgrass: Preemergence, visual rating after 10 days
In short: as §2

barnyardgrass [4] = assay: Test C postemergence; format: in vivo, Echinochloa crusgalli
In short: as §2

ryegrass, Italian [5] = assay: Test C preemergence; format: in vivo, Lolium multiflorum; details: 0 to 100 scale (0 no effect, 100 complete control); for Plant response rating, Ryegrass, Italian: Preemergence, visual rating after 10 days
In short: as §2

kochia [6] = assay: Test C postemergence; format: in vivo, Bassia scoparia; details: 10 days
In short: as §2

pigweed, palmer [7] = assay: Test C preemergence; format: in vivo, Amaranthus palmeri; details: 0 to 100 scale (0 no effect, 100 complete control); for Plant response rating, Pigweed, Palmer: Preemergence, visual rating after 10 days
In short: as §2

pigweed, palmer [8] = assay: Test C postemergence; format: in vivo, Amaranthus palmeri; details: Postemergence, 10 days, visual 0 to 100 scale (0 no effect, 100 complete control)
In short: as §2

rice = assay: Test D flooded paddy test; format: in vivo, Oryza sativa; details: 250 g ai/ha, applied to paddy water, visual rating after 13 to 14 days, scale 0 to 100 (0 no effect, 100 complete control)
In short: as §1

ryegrass, Italian [9] = assay: Test C postemergence; format: in vivo, Lolium multiflorum; details: 10 days
In short: as §2

ducksalad = assay: Test D flooded paddy test; format: in vivo, Heteranthera limosa; details: 250 g ai/ha, applied to paddy water, visual rating after 13 to 14 days, scale 0 to 100 (0 no effect, 100 complete control)
In short: as §1

blackgrass [10] = assay: Test C postemergence; format: in vivo, Alopecurus myosuroides; details: 10 days
In short: as §2

galium = assay: Test C postemergence; format: in vivo, Galium aparine; details: 10 days
In short: as §2

horseweed = assay: Test C postemergence; format: in vivo, Erigeron canadensis; details: 10 days
In short: as §2

barnyardgrass [11] = assay: Test C preemergence; format: in vivo, Echinochloa crusgalli; details: 0 to 100 scale (0 no effect, 100 complete control); for Plant response rating, Barnyardgrass: Preemergence, visual rating after 10 days
In short: as §2

kochia [12] = assay: Test C preemergence; format: in vivo, Bassia scoparia; details: 0 to 100 scale (0 no effect, 100 complete control); for Plant response rating, Kochia: Preemergence, visual rating after 10 days
In short: as §2

green foxtail [13] = assay: Test C postemergence; format: in vivo, Setaria viridis; details: Postemergence, 1000 g ai/ha, 10 days, visual 0 to 100 scale (0 no effect, 100 complete control)
In short: as §2

ragweed [14] = assay: Test C preemergence; format: in vivo, Ambrosia artemisiifolia; details: 0 to 100 scale (0 no effect, 100 complete control); for Plant response rating, Ragweed: Preemergence, visual rating after 10 days
In short: as §2

ragweed [15] = assay: Test C postemergence; format: in vivo, Ambrosia artemisiifolia; details: 10 days
In short: as §2

corn [16] = assay: Test C preemergence; format: in vivo, Zea mays; details: 0 to 100 scale (0 no effect, 100 complete control)
In short: as §2

soybean [17] = assay: Test C postemergence; format: in vivo, Glycine max; details: 10 days
In short: as §2

soybean [18] = assay: Test C preemergence; format: in vivo, Glycine max; details: 0 to 100 scale (0 no effect, 100 complete control)
In short: as §2

wheat [19] = assay: Test C preemergence; format: in vivo, Triticum aestivum; details: 0 to 100 scale (0 no effect, 100 complete control)
In short: as §2

oat, wild [20] = assay: Test C preemergence; format: in vivo, Avena fatua; details: 0 to 100 scale (0 no effect, 100 complete control)
In short: as §2

wheat [21] = assay: Test C postemergence; format: in vivo, Triticum aestivum; details: 10 days
In short: as §2

oat, wild [22] = assay: Test C postemergence; format: in vivo, Avena fatua; details: 10 days
In short: as §2

corn [23] = assay: Test C postemergence; format: in vivo, Zea mays; details: 10 days
In short: as §2

[24] = Postemergence, 1000 g ai/ha, visual 0 to 100 scale (0 no effect, 100 complete control)
[25] = Preemergence, 500 g ai/ha, visual rating after 10 days
[26] = Test C, preemergence, 125 g ai/ha
[27] = 125 g ai/ha, postemergence, 0 to 100 scale, 0 no effect, 100 complete control
[28] = Postemergence, 500 g ai/ha, visual 0 to 100 scale (0 no effect, 100 complete control)

Cc1nccc(-c2cccc(C(=O)N3C[C@H](C)Oc4c(C)cccc43)c2)n1 [Compound 250]
30: Plant response rating, Blackgrass (blackgrass [3]; 1000 g ai/ha)
50: Plant response rating, Barnyardgrass (barnyardgrass [4]; Postemergence, 1000 g ai/ha, 0 to 100 scale, 0 no effect, 100 complete control) | Plant response rating, Pigweed, Palmer (pigweed, palmer [8]; 1000 g ai/ha) | Plant response rating, Galium (galium; [24]) | Plant response rating, Ragweed (ragweed [15]; [24])
100: Plant response rating, Foxtail, Green (green foxtail [2]; 1000 g ai/ha)
40: Plant response rating, Ryegrass, Italian (ryegrass, Italian [9]; [24])
70: Plant response rating, Kochia (kochia [6]; [24])
0: Plant response rating, Barnyardgrass (Flood) (barnyardgrass [1]) | Plant response rating, Sedge, Umbrella (Flood) (sedge, umbrella) | Plant response rating, Rice (Flood) (rice) | Plant response rating, Ducksalad (Flood) (ducksalad) | Plant response rating, Horseweed (horseweed; [24]) | Plant response rating, Ragweed (ragweed [14]; 1000 g ai/ha)
20: Plant response rating, Blackgrass (blackgrass [10]; [24])
80: Plant response rating, Pigweed, Palmer (pigweed, palmer [7]; 1000 g ai/ha) | Plant response rating, Kochia (kochia [12]; 1000 g ai/ha) | Plant response rating, Foxtail, Green (green foxtail [13])
90: Plant response rating, Ryegrass, Italian (ryegrass, Italian [5]; 1000 g ai/ha) | Plant response rating, Barnyardgrass (barnyardgrass [11]; 1000 g ai/ha)

COC[C@H]1CN(C(=O)c2cccc(-n3cnc(C(C)(C)O)n3)c2)c2cccc(Cl)c2O1 [Compound 253]
60: Plant response rating, Ryegrass, Italian (ryegrass, Italian [5]; 500 g ai/ha) | Plant response rating, Barnyardgrass (barnyardgrass [11]; 500 g ai/ha) | Kochia plant response rating (kochia [12]; [26])
85: Plant response rating, Ducksalad (Flood) (ducksalad)
100: Plant response rating, Soybean (soybean [17]; [27]) | Plant response rating, Soybean (soybean [17]; [28]) | Plant response rating, Foxtail, Green (green foxtail [2]; 500 g ai/ha) | Plant response rating, Pigweed, Palmer (pigweed, palmer [7]; 500 g ai/ha) | Plant response rating, Galium (galium; [27]) | Plant response rating, Galium (galium; [28])
90: Pigweed, Palmer plant response rating (pigweed, palmer [7]; [26]) | Plant response rating, Oat, Wild (oat, wild [20]; [25]) | Plant response rating, Oat, Wild (oat, wild [22]; [28])
10: Plant response rating, Corn (corn [16]; [25]) | Plant response rating, Rice (Flood) (rice)
20: Blackgrass plant response rating (blackgrass [3]; [26]) | Plant response rating, Barnyardgrass (barnyardgrass [4]; 125 g ai/ha, postemergence, 10 days, 0 to 100 scale, 0 no effect, 100 complete control) | Plant response rating, Wheat (wheat [21]; [27]) | Plant response rating, Horseweed (horseweed; [28]) | Ragweed plant response rating (ragweed [14]; [26]) | Plant response rating, Corn (corn [23]; [27])
30: Plant response rating, Barnyardgrass (barnyardgrass [4]; Postemergence, 500 g ai/ha, 10 days, visual 0 to 100 scale (0 no effect, 100 complete control)) | Oat, Wild plant response rating (oat, wild [20]; [26])
70: Plant response rating, Sedge, Umbrella (Flood) (sedge, umbrella) | Plant response rating, Pigweed, Palmer (pigweed, palmer [8]; 500 g ai/ha) | Plant response rating, Wheat (wheat [21]; [28]) | Plant response rating, Ragweed (ragweed [15]; [27]) | Plant response rating, Ragweed (ragweed [15]; [28])
50: Plant response rating, Wheat (wheat [19]; [25]) | Plant response rating, Blackgrass (blackgrass [3]; 500 g ai/ha) | Plant response rating, Ryegrass, Italian (ryegrass, Italian [9]; [27]) | Plant response rating, Ryegrass, Italian (ryegrass, Italian [9]; [28]) | Barnyardgrass plant response rating (barnyardgrass [11]; [26]) | Plant response rating, Oat, Wild (oat, wild [22]; [27])
80: Plant response rating, Soybean (soybean [18]; [25]) | Foxtail, Green plant response rating (green foxtail [2]; [26]) | Plant response rating, Kochia (kochia [6]; [27]) | Plant response rating, Kochia (kochia [6]; [28]) | Plant response rating, Blackgrass (blackgrass [10]; [28]) | Plant response rating, Kochia (kochia [12]; 500 g ai/ha) | Plant response rating, Ragweed (ragweed [14]; 500 g ai/ha) | Plant response rating, Corn (corn [23]; [28])
40: Soybean plant response rating (soybean [18]; [26]) | Ryegrass, Italian plant response rating (ryegrass, Italian [5]; [26]) | Plant response rating, Blackgrass (blackgrass [10]; [27])
0: Corn plant response rating (corn [16]; [26]) | Plant response rating, Barnyardgrass (Flood) (barnyardgrass [1]) | Wheat plant response rating (wheat [19]; [26]) | Plant response rating, Horseweed (horseweed; [27])

Cc1ncc(-c2cccc(C(=O)N3C[C@H](C)Oc4c(Cl)cccc43)c2)s1 [Compound 296]
30: Plant response rating, Ryegrass, Italian (ryegrass, Italian [9]; [24])
50: Plant response rating, Blackgrass (blackgrass [3]; 1000 g ai/ha) | Plant response rating, Barnyardgrass (barnyardgrass [4]; Postemergence, 1000 g ai/ha, 10 days, visual 0 to 100 scale (0 no effect, 100 complete control))
0: Plant response rating, Barnyardgrass (Flood) (barnyardgrass [1]) | Plant response rating, Sedge, Umbrella (Flood) (sedge, umbrella) | Plant response rating, Rice (Flood) (rice) | Plant response rating, Ducksalad (Flood) (ducksalad)
100: Plant response rating, Foxtail, Green (green foxtail [2]; 1000 g ai/ha) | Plant response rating, Pigweed, Palmer (pigweed, palmer [7]; 1000 g ai/ha) | Plant response rating, Galium (galium; [24]) | Plant response rating, Barnyardgrass (barnyardgrass [11]; 1000 g ai/ha)
90: Plant response rating, Kochia (kochia [6]; [24]) | Plant response rating, Pigweed, Palmer (pigweed, palmer [8]; 1000 g ai/ha) | Plant response rating, Kochia (kochia [12]; 1000 g ai/ha)
70: Plant response rating, Ragweed (ragweed [14]; 1000 g ai/ha)
60: Plant response rating, Horseweed (horseweed; [24])
80: Plant response rating, Ryegrass, Italian (ryegrass, Italian [5]; 1000 g ai/ha) | Plant response rating, Blackgrass (blackgrass [10]; [24]) | Plant response rating, Foxtail, Green (green foxtail [13]) | Plant response rating, Ragweed (ragweed [15]; [24])
